Consider three molecules from patent publication US20220154184A1, “INCREASING GENOME STABILITY AND REPROGRAMMING EFFICIENCY OF INDUCED PLURIPOTENT STEM CELLS” (THE TRUSTEES OF COLUMBIA UNIVERSITY IN THE CITY OF NEW YORK, priority 2019, published 2022).

Molecules are shown by their SMILES.

The subject of experiment [1] is mouse embryonic fibroblasts (MEFs). Put plainly: OSKM reprogramming of MEFs with drug treatment, alkaline phosphatase (AP) staining / sensitivity score. The class given is cell-based. On the procedure: For infection, P1 mouse embryonic fibroblasts (MEFs) were thawed and plated at 1×10^6 cells per 10 cm dish on the previous day. Infection proceeded in two rounds with 8 h to 9 h in between. Briefly, cells were incubated with an OSKM/rtta virus mix (1:1), supplemented with 8 ug/ml protamine sulfate (Fisher Scientific #0219472905). The infection mix was removed on the following day and cells were left to recover in fresh MEF media (DMEM HG Thermo Fisher Scientific #10569010 with 10% FBS Atlanta Biologicals #S11150, Glutamax Thermo Fisher Scientific #35050079 and PenStrep Thermo Fisher Scientific 15140163).
Two days after infection, cells were re-plated for transduction efficiency assessment on day 3, molecular analyses on day 5, colony picking on day 16 and alkaline phosphatase (AP) staining on day 20. In each experiment, infected fibroblasts from the different genotypes were replated at multiple densities to allow for optimal reprogramming efficiency. For wild-type cells, 100-300 cells/mm^2 (20-60K per well of a 24 w dish) routinely generated high numbers of iPS cell clones. Besides for wild-type, 20-60K per well of a 24 w dish was also optimal for the Bard1 point mutants, Brca1^tr/+ and all combination mutations with Smarcal1 or 53bp1; Brca1^tr/tr, 53bp1^−/− as well as the heterozygous or homozygous Smarcal1 and 53bp1 single mutants. […] The remaining Brca1^tr/tr53BP1^+/− genotype was re-plated at 450 cells/mm^2 (90K/well of a 24 w dish). These seeding densities were later used to calculate the reprogramming efficiency of each genotype. The OSKM reprogramming factors were induced with 1 ug/ml doxycycline (Sigma #D9891) in mouse embryonic stem (mES) cell media, consisting of Knockout DMEM (Life Technologies #10829-018), supplemented with 15% Knockout Serum Replacement (Life Technologies #10828-028), Glutamax (Thermo Fisher Scientific #35050079), MEM NEAA (Life Technologies #11140050), PenStrep (Thermo Fisher Scientific 15140163), 2-mercaptoetahnol (Life Technologies #21985-023) and […] LIF (eBioscience #34-8521-82). Transduction efficiency was determined on reprogramming day 3 by staining for Sox2 (Stemgent #09-0024) and used in the calculation of reprograming efficiency. The reprogramming experiments with drug treatment used aphidicolin (Sigma #A0781) at 0.2 uM, Ttpotecan (Sigma #T2705) at 10 nM or the DNA PK inhibitor NU7026 (Tocris #2828) at 5 uM for 8 days during reprogramming.
Alternatively, for the induction of two-ended DSBs, cells were subjected to a single dose of 6 Gy IR 1 day post doxycycline-mediated OSKM factor induction. Cells were fixed on reprogramming day 18-20 and stained for alkaline phosphatase with the Vector Red detection kit (Vector Laboratories #SK-5100). Reprogramming efficiency was determined by considering the number of AP-positive colonies per number of infected cells, determined by Sox2 staining at the optimal plating density for each genotype. The sensitivity score in the experiments with aphidicolin, topotecan and IR was calculated as follows: the reprogramming efficiency of wild-type treated cells was determined as described above and normalized to the reprogramming efficiency of wild type untreated cells. The same procedure was applied to each mutant genotype. The sensitivity score was obtained by calculating the ratio of treated wild type (normalized to untreated wild type) to treated mutant (normalized to untreated mutant). A large score corresponds to high sensitivity.

For experiment [2], the system named is wild-type uninfected MEFs. Put plainly: 53bp1 foci immunofluorescence in uninfected fibroblasts treated with aphidicolin. The class given is cell-based, mouse. To be noted: 0.2 uM aphidicolin for 3 days. On the procedure: Detection of […], phospho RPA(S33) and 53bp1 was performed on reprogramming D5 with the following antibodies: Phospho-RPA2Ser33 (Invitrogen #PA5-39809); Anti-phosphoHistone H2A.X-Ser139 (Millipore #05-636); and 53BP1 Antibody H-300 (Santa Cruz #22760). For detection of Rad51, iPS cell lines were irradiated with 10 Gy and stained with Rad51 (Ab-1) Rabbit pAb (Millipore #PC130) 1.5 h post IR.
The DNA damage observed in the form of phosphorylated H2AX during reprogramming can be the result of global epigenetic remodeling (Hernandez et al., 2018), oxidative stress (Ji et al., 2014) or elevated replication stress (Ruiz et al., 2015). To determine the specific type of DNA damage which is most limiting to iPS cell generation, mouse embryonic fibroblasts (MEFs) were treated during reprogramming with the DNA polymerase inhibitor aphidicolin, which induces one-ended double strand breaks (DSBs), processed by HDR (Rothkamm et al., 2003). To test the effect of aphidicolin on primary cells, uninfected wild type fibroblasts were incubated with 0.2 uM aphidicolin for 3 days and noted an increase in the numbers of 53bp1 foci (FIG. 4B).

Consider `CC[C@@]1(O)C(=O)OCc2c1cc1n(c2=O)Cc2cc3c(CN(C)C)c(O)ccc3nc2-1` [topotecan], for which the sensitivity of reprogramming entry in experiment [1] (53bp1 null cells, 10 nM topotecan for 8 days during reprogramming) is on record as “reduced sensitivity”; in experiment [1] (Brca1^tr/tr53bp1^-/- cells, 10 nM topotecan for 8 days during reprogramming) it was “mild sensitivity”; in experiment [1] (wild-type cells, 10 nM topotecan for 8 days during reprogramming), “barely sensitive”. Further, the reprogramming efficiency result in experiment [1] (Brca1^tr/tr cells, 10 nM topotecan for 8 days during reprogramming) was “greatly reduced efficiency”.

In the case of `C[C@@]1(CO)[C@H](O)CC[C@@]2(C)[C@H]1CC[C@H]1C[C@@H]3C[C@@]12CC[C@]3(O)CO` [aphidicolin], the sensitivity of reprogramming result in experiment [1] (53bp1^-/- mutants, 0.2 uM aphidicolin for 8 days during reprogramming) is given as “less sensitive”. Moreover, the “reprogramming efficiency compared to the Brca1^tr/tr genotype” value in experiment [1] (Brca1^tr/tr53bp1^-/- cells, 0.2 uM aphidicolin for 8 days during reprogramming) is given as “improvement of reprogramming efficiency”. Moreover, the “sensitivity of reprogramming (colony numbers relative to wild-type)” value in experiment [1] (Brca1^tr/tr cells, 0.2 uM aphidicolin for 8 days during reprogramming) was “pronounced sensitivity”. Further, the reprogramming efficiency entry in experiment [1] (wild type cells, 0.2 uM aphidicolin for 8 days during reprogramming) is given as “reduced the efficiency of the process”. Moreover, in experiment [2], the “numbers of 53bp1 foci” value was “increase”.

Consider `O=c1cc(N2CCOCC2)oc2c1ccc1ccccc12` [DNA PK inhibitor, NU7026], for which the efficiency of reprogramming result in experiment [1] (wild type MEFs, 5 uM DNA PK inhibitor for 8 days during reprogramming) was “no effect”.
